# Laboratory results reported in US7109341B2, “Therapeutic amides” (Wayne State University, priority 2002, dated 2006).
# Where “and” joins values, the source holds several entries; their conditions need not be identical. Equal entries are not always repeated.
# Experiments:
# [1] = Water solubility noted on drug preparation for injection; type: physicochemical
# Method: Compounds as their sodium salts were prepared in a 1% sodium bicarbonate solution, H2O or phosphate buffered saline (PBS), with pH adjusted to 7.0 to 7.5 with HCl, and administered intravenously (IV) or orally (PO), at injection volumes of 0.2 mL per injection.
# [2] = test system: Pancreatic Ductal Adenocarcinoma #03; test: Evaluation against early stage Pancreatic Ductal Adenocarcinoma #03, BD1 female mice (Table 2); details: PO
# [3] = test system: Pancreatic Ductal Adenocarcinoma 03; test: Evaluation against early stage Pancreatic Ductal Adenocarcinoma 03, IP route, C57 females (Table 9); type: in vivo
# Method: The IP route was used for two reasons. […] This is approximately 40% of the dose given IV with the racemic mix (60 mg/kg, see Table 7).
# [4] = Cage 3, BID3–7, total 2,300 mg/kg
# [5] = Cage 4, BID 3, 4, total 480 mg/kg
# [6] = Cage 2, BID3–5, total 450 mg/kg
# [7] = Cage 3, BID3–7, total 450 mg/kg
structure (smiles),measurement,setting,value
CNC(=O)C(C)Oc1ccc(Oc2cnc3ccc(Cl)cc3n2)cc1 (centres unmarked) [Compound 14b],water solubility,[1],water insoluble
same,Day of Wt. Loss Nadir,[2]; [4],8 days
same,Drug Deaths (day of death),[2]; [4],0/5
same,Growth Delay,[2]; [4],7.0 days
same,Log Cell Kill,[2]; [4],0.8
same,Mean Body Wt. Loss (g/mouse),[2]; [4],−2.0 g/mouse
same,Median Tumor Burden in mg on d18 (Range),[2]; [4],671 mg
same,T/C %,[2]; [4],39%
same,Time in days to 1000 mg (range),[2]; [4],21 days
same,Tumor Free on d 154,[2]; [4],0/5
same,day of full body weight recovery,[2]; [4],10 days
same,% Body Wt. Loss,[2]; [5],4%
same,Day of Wt. Loss Nadir,[2]; [5],5 days
same,Drug Deaths (day of death),[2]; [5],0/5
same,Growth Delay,[2]; [5],2.0 days
same,Log Cell Kill,[2]; [5],0.2
same,Mean Body Wt. Loss (g/mouse),[2]; [5],−0.8 g/mouse
same,Median Tumor Burden in mg on d18 (Range),[2]; [5],1266 mg
same,T/C %,[2]; [5],74%
same,Time in days to 1000 mg (range),[2]; [5],15 days
same,Tumor Free on d 154,[2]; [5],0/5
same,% Body Wt. Loss,"[2]; Cage 5, BID 3, total 108 mg/kg",0%
same,Day of Wt. Loss Nadir,"[2]; Cage 5, BID 3, total 108 mg/kg",5 days
same,Drug Deaths (day of death),"[2]; Cage 5, BID 3, total 108 mg/kg",0/5
same,Growth Delay,"[2]; Cage 5, BID 3, total 108 mg/kg",2.7 days
same,Log Cell Kill,"[2]; Cage 5, BID 3, total 108 mg/kg",0.3
same,Mean Body Wt. Loss (g/mouse),"[2]; Cage 5, BID 3, total 108 mg/kg",+0.4 g/mouse
same,Median Tumor Burden in mg on d18 (Range),"[2]; Cage 5, BID 3, total 108 mg/kg",1312 mg
same,T/C %,"[2]; Cage 5, BID 3, total 108 mg/kg",77%
same,Time in days to 1000 mg (range),"[2]; Cage 5, BID 3, total 108 mg/kg",15.7 days
same,Tumor Free on d 154,"[2]; Cage 5, BID 3, total 108 mg/kg",0/5
"CC(Oc1ccc(Oc2ccc3ccc(Br)cc3n2)cc1)C(=O)NCCS(=O)(=O)[O-].[Na+] [Compound 14g (R), Sodium (2-(4-(7-bromo-2-quinolinyl)oxy)phenoxy) propionylamino ethanesulfonate]",water solubility,[1],Low water solubility limits
same,solubility limit,[1]; expressed as injectable dose,25 mg/kg (0.2 ml/inj)
same,Day of Wt. Loss Nadir,[3]; [6],9 days
same,Drug Death (day of death),[3]; [6],one drug death and 1/5
same,Log Cell Kill,[3]; [6],1.52
same,Mean Body Wt. Loss in g/mouse,[3]; [6],−4.4 g/mouse
same,Median Tumor Burden in mg on d14 (range),[3]; [6],0 mg
same,T-C,[3]; [6],10.75 days
same,T/C %,[3]; [6],0%
same,Time to 1000 mg in days (range),[3]; [6],24.75 days
same,Tumor Free on d31,[3]; [6],0/5
same,day of body weight recovery,[3]; [6],≤ 17 days
same,toxicity observations,[3]; [6],increased urinary output and a sunken appearance
same,Day of Wt. Loss Nadir,[3]; [7],9 days
same,Drug Death (day of death),[3]; [7],0/5
same,Log Cell Kill,[3]; [7],1.72
same,Mean Body Wt. Loss in g/mouse,[3]; [7],−1.2 g/mouse
same,Median Tumor Burden in mg on d14 (range),[3]; [7],126 mg
same,T-C,[3]; [7],12 days
same,T/C %,[3]; [7],12.6%
same,Time to 1000 mg in days (range),[3]; [7],26 days
same,Tumor Free on d31,[3]; [7],0/5
